In patent US8314253B2, “Bridged tetrahydronaphthalene derivatives” (Actelion Pharmaceuticals Ltd., priority 2008, dated 2012):

Test system: human Cav3.1 Cav3.2 or Cav3.3 channel
Assay: In vitro assay T channel (FLIPR, Ca2+-induced fluorescence)
Format: cell-based
Details: HEK293 cells expressing human Cav3.1 Cav3.2 or Cav3.3; 10 mM Ca2+; determined up to 10 μM; read-out: T channel antagonistic activity IC50
Experimental: Human embryonic kidney (HEK293) cells expressing the human Cav3.1 Cav3.2 or Cav3.3 channel, respectively, are grown in culture medium (DMEM containing 10% heat-inactivated fetal calf serum (FCS), 100 U/ml penicillin, 100 μg/ml streptomycin and 1 mg/ml G418). The cells are seeded at 20.000 cells/well into 384-well black clear bottom sterile plates (poly-L-lysine-coated, Becton Dickinson). The seeded plates are incubated overnight at 37° C. in 5% CO2. The Ca^2+ solution is prepared as 100 mM stock solution in 100 mM tetraethylammoniumchloride (TEA-chloride), 50 mM HEPES, 2.5 mM CaCl2, 5 mM KCl, 1 mM MgCl2, adjusted to pH 7.2 with TEA-hydroxide, for use in the assay at a final concentration of 10 mM. […] Fluorescence is measured for each well at 2 second intervals for 8 minutes, and the area under the curve of each fluorescence peak is compared to the area of the fluorescence peak induced by 10 mM Ca^2+ with vehicle in place of antagonist.

Structure (SMILES)	IC50 [nM]
CN(CCCc1nc2ccccc2[nH]1)CCC1(O)CC2CCC1c1ccccc12 (single isomer, unassigned) [Example 2, (1S,8S,9S)-9-(2-{[3-(1H-Benzoimidazol-2-yl)-propyl]-methyl-amino}-ethyl)-tricyclo[6.2.2.0^2,7]dodeca-2,4,6-trien-9-ol or (1R,8R,9R)-9-(2-{[3-(1H-benzoimidazol-2-yl)-propyl]-methyl-amino}-ethyl)-tricyclo[6.2.2.0^2,7]dodeca-2,4,6-trien-9-ol]	2900
O[C@@]1(CCN2CCCC(c3nc4ccccc4[nH]3)C2)C[C@H]2CC[C@@H]1c1ccccc12 (relative stereo) [Example 7, (1R*,8R*,9R*)-9-{2-[(3RS)-3-(1H-Benzoimidazol-2-yl)-piperidin-1-yl]-ethyl}-tricyclo[6.2.2.0^2,7]dodeca-2,4,6-trien-9-ol]	2260
CN(CCCc1nc2ccccc2[nH]1)CCC1(O)CC2CCCC1c1ccccc12 (single isomer, unassigned) [Example 12, (1S,8S,12S)-12-(2-{[3-(1H-Benzoimidazol-2-yl)-propyl]-methyl-amino}-ethyl)-tricyclo[6.3.2.0^2,7]trideca-2,4,6-trien-12-ol or (1R,8R,12R)-12-(2-{[3-(1H-benzoimidazol-2-yl)-propyl]-methyl-amino}-ethyl)-tricyclo[6.3.2.0^2,7]trideca-2,4,6-trien-12-ol]	631
O[C@@]1(CCN2CCC(c3ccccc3)(c3nc4ccccc4[nH]3)CC2)C[C@H]2CC[C@@H]1c1ccccc12 (relative stereo) [Example 8, rac-(1R*,8R*,9R*)-9-{2-[4-(1H-Benzoimidazol-2-yl)-4-phenyl-piperidin-1-yl]-ethyl}-tricyclo[6.2.2.0^2,7]dodeca-2,4,6-trien-9-ol]	953
CO[C@@]1(CCN(C)CCCc2nc3ccccc3[nH]2)C[C@H]2CC[C@@H]1c1ccccc12 (relative stereo) [Example 4, rac-(1R*,8R*,9R*)-[3-(1H-Benzoimidazol-2-yl)-propyl]-[2-(9-methoxy-tricyclo[6.2.2.0^2,7]dodeca-2,4,6-trien-9-yl)-ethyl]-methyl-amine]	1220
CN(CCCc1nc2ccccc2[nH]1)CC[C@]1(O)C[C@H]2CCC[C@@H]1c1ccccc12 (relative stereo) [Example 10, rac-(1R*,8R*,12R*)-12-(2-{[3-(1H-Benzoimidazol-2-yl)-propyl]-methyl-amino}-ethyl)-tricyclo[6.3.2.0^2,7]trideca-2,4,6-trien-12-ol]	1580
COc1ccc(C)c2[nH]c(CCCN(C)CCC3(O)CC4CCCC3c3ccccc34)nc12 (single isomer, unassigned) [Example 14, (1S,8S,12S)-12-(2-{[3-(4-Methoxy-7-methyl-1H-benzoimidazol-2-yl)-propyl]-methyl-amino}-ethyl)-tricyclo[6.3.2.0^2,7]trideca-2,4,6-trien-12-ol or (1R,8R,12R)-12-(2-{[3-(4-methoxy-7-methyl-1H-benzoimidazol-2-yl)-propyl]-methyl-amino}-ethyl)-tricyclo[6.3.2.0^2,7]trideca-2,4,6-trien-12-ol]	736

Other lines, results leading:

IC50 [nM]	Structure (SMILES)
1110	CC(C)C(=O)O[C@@]1(CCN2CCCC(c3nc4ccccc4[nH]3)C2)C[C@H]2CC[C@@H]1c1ccccc12 (relative stereo) [Example 7A, Isobutyric acid (1R*,8R*,9R*)-9-{2-[(3RS)-3-(1H-benzoimidazol-2-yl)-piperidin-1-yl]-ethyl}-tricyclo[6.2.2.0^2,7]dodeca-2,4,6-trien-9-yl ester]
814	COCC(=O)O[C@@]1(CCN(C)CCCc2nc3ccccc3[nH]2)C[C@H]2CCC[C@@H]1c1ccccc12 (relative stereo) [Example 10A, rac-Methoxy-acetic acid (1R*,8R*,12R*)-12-(2-{[3-(1H-benzoimidazol-2-yl)-propyl]-methyl-amino}-ethyl)-tricyclo[6.3.2.0^2,7]trideca-2,4,6-trien-12-yl ester]
1310	CC(C)C(=O)O[C@@]1(CCN(C)CCCc2nc3ccccc3[nH]2)C[C@H]2CCC[C@@H]1c1ccccc12 (relative stereo) [Example 10B, rac-Isobutyric acid (1R*,8R*,12R*)-12-(2-{[3-(1H-benzoimidazol-2-yl)-propyl]-methyl-amino}-ethyl)-tricyclo[6.3.2.0^2,7]trideca-2,4,6-trien-12-yl ester]
514	COc1ccc(C)c2[nH]c(CCCN(C)CC[C@@]3(OC(=O)CC(F)(F)F)C[C@@H]4CCC[C@H]3c3ccccc34)nc12 [Example 14B, 3,3,3-Trifluoro-propionic acid (1S,8S,12S)-12-(2-{[3-(4-methoxy-7-methyl-1H-benzoimidazol-2-yl)-propyl]-methyl-amino}-ethyl)-tricyclo[6.3.2.0^2,7]trideca-2,4,6-trien-12-yl ester or 3,3,3-trifluoro-propionic acid (1R,8R,12R)-12-(2-{[3-(4-methoxy-7-methyl-1H-benzoimidazol-2-yl)-propyl]-methyl-amino}-ethyl)-tricyclo[6.3.2.0^2,7]trideca-2,4,6-trien-12-yl ester]
5180	CC(C)C(=O)O[C@]1(CCN(C)CCCc2nc3ccccc3[nH]2)C[C@H]2CC[C@@H]1c1ccccc12 (relative stereo) [Example 5A, rac-Isobutyric acid (1R*,8R*,9S*)-9-(2-{[3-(1H-benzoimidazol-2-yl)-propyl]-methyl-amino}-ethyl)-tricyclo[6.2.2.0^2,7]dodeca-2,4,6-trien-9-yl ester]
969	CN(CCCc1nc2ccccc2[nH]1)CC[C@]1(OC(=O)C2CC2)C[C@H]2CC[C@@H]1c1ccccc12 (relative stereo) [Example 1C, rac-Cyclopropanecarboxylic acid (1R*,8R*,9R*)-9-(2-{[3-(1H-benzoimidazol-2-yl)-propyl]-methyl-amino}-ethyl)-tricyclo[6.2.2.0^2,7]dodeca-2,4,6-trien-9-yl ester]
783	CC(C)C(=O)OC1(CCN(C)CCCc2nc3ccccc3[nH]2)CC2CCCC1c1ccccc12 [Example 12A, Isobutyric acid (1S,8S,12S)-12-(2-{[3-(1H-Benzoimidazol-2-yl)-propyl]-methyl-amino}-ethyl)-tricyclo[6.3.2.0^2,7]trideca-2,4,6-trien-12-yl ester or isobutyric acid (1R,8R,12R)-12-(2-{[3-(1H-benzoimidazol-2-yl)-propyl]-methyl-amino}-ethyl)-tricyclo[6.3.2.0^2,7]trideca-2,4,6-trien-12-yl ester]
544	COc1cccc2[nH]c(CCCN(C)CCC3(OC(=O)C(C)C)CC4CCCC3c3ccccc34)nc12 [Example 13A, Isobutyric acid (1S,8S,12S)-12-(2-{[3-(4-Methoxy-1H-benzoimidazol-2-yl)-propyl]-methyl-amino}-ethyl)-tricyclo[6.3.2.0^2,7]trideca-2,4,6-trien-12-yl ester or isobutyric acid (1R,8R,12R)-12-(2-{[3-(4-methoxy-1H-benzoimidazol-2-yl)-propyl]-methyl-amino}-ethyl)-tricyclo[6.3.2.0^2,7]trideca-2,4,6-trien-12-yl ester]
1530	COCC(=O)O[C@@]1(CCN(C)CCCc2nc3ccccc3[nH]2)C[C@H]2CC[C@@H]1c1ccccc12 (relative stereo) [Example 1A, rac-Methoxy-acetic acid (1R*,8R*,9R*)-9-(2-{[3-(1H-benzoimidazol-2-yl)-propyl]-methyl-amino}-ethyl)-tricyclo[6.2.2.0^2,7]dodeca-2,4,6-trien-9-yl ester]
